Laboratory results taken from patent EP4603105A1, “PHARMACEUTICAL COMPOSITION CONTAINING CYCLIC COMPOUND HAVING SELECTIVE KRAS INHIBITORY EFFECT AGAINST HRAS AND NRAS” (CHUGAI SEIYAKU KABUSHIKI KAISHA, priority 2022, dated 2024).

Experiments:
[1] = system: human lung cancer strain NCI-H441; type: cell-based
In short: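 Step one: dispense the test compound in serial DMSO dilutions. Step three: add the reagent and measure […].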

HRAS wild-type protein = HRAS wild-type protein (Homo sapiens, UniProt P01112); assay: Binding to HRAS by surface plasmon resonance (SPR), KD and KD ratio to KRAS; details: ratio of the KD value with respect to HRAS wild-type protein to the KD value with respect to KRAS
Chain of HRAS wild-type protein (P01112 whole entry): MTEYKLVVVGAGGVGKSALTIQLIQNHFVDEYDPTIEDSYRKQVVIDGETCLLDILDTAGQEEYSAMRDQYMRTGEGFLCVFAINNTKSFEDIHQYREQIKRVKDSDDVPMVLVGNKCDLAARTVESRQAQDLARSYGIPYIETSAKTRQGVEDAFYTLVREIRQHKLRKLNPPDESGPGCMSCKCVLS
In short: (§1)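 Running buffer contained 10 µM GDP and 10 mM MgCl2 to keep RAS in the GDP state, with 4% DMSO at pH 7.4. Compounds were flowed at 100 µL/min in 75 s steps of rising concentration over captured biotin-Avi RAS at 30°C. Sensorgrams were fitted 1:1 for KD.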

[2] = biological target: GDP-bound NRAS wild-type protein (Homo sapiens, UniProt P01111); assay: Binding to NRAS by surface plasmon resonance (SPR), KD and KD ratio to KRAS; details: ratio of the KD value with respect to GDP-bound NRAS wild-type protein to the KD value with respect to KRAS
Chain of GDP-bound NRAS wild-type protein (P01111 whole entry): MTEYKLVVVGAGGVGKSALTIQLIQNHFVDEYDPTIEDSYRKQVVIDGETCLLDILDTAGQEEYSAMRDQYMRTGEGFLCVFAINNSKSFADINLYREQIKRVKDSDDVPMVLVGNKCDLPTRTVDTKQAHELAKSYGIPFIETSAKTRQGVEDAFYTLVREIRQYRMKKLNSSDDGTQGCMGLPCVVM
In short: as §1

CCO[C@@H]1C[C@H]2C(=O)NC3(CC(C)(C)C3)C(=O)N(C)[C@@H](C(CC)CC)C(=O)N(C)[C@H](C(=O)N(C)C)CC(=O)N(C)[C@@H](CC3CC3)C(=O)N[C@@H]([C@@H](C)CC)C(=O)N(C)CC(=O)N(C)[C@H]3C/C=C\CCN(C3=O)[C@@H](Cc3ccc(C(F)(F)F)cc3)C(=O)N(C)CC(=O)N[C@@H](CCc3ccc(C(F)(F)F)c(Cl)c3)C(=O)N2C1 [PP2124]
IC50 [1]: 18.7 nM
HRAS /KRAS (HRAS wild-type protein): A (a compound having 10 or more and less than 20 is denoted as A)
NRAS /KRAS [2]: AA (a compound having 20 or more is denoted as AA)

CCC[C@H]1C(=O)N[C@@H]([C@@H](C)CC)C(=O)N(C)CC(=O)N(C)[C@H]2C/C=C\CCN(C2=O)[C@@H](Cc2ccc(C(F)(F)F)cc2)C(=O)N(C)CC(=O)N[C@@H](CCc2cc(F)c(C(F)(F)F)c(F)c2)C(=O)N2C[C@H](OCC)C[C@H]2C(=O)NC2(CC(C)(C)C2)C(=O)N(C)[C@@H](C(CC)CC)C(=O)N(C)[C@H](C(=O)N(C)C)CC(=O)N1C [PP2125]
IC50 [1]: 4 nM
HRAS /KRAS (HRAS wild-type protein): A (a compound having 10 or more and less than 20 is denoted as A)
NRAS /KRAS [2]: AA (a compound having 20 or more is denoted as AA)

CCO[C@@H]1C[C@H]2C(=O)NC3(CC(C)(C)C3)C(=O)N(C)[C@@H](C(CC)CC)C(=O)N(C)[C@H](C(=O)N(C)C)CC(=O)N(C)[C@@H](COC)C(=O)N[C@@H]([C@@H](C)CC)C(=O)N(C)CC(=O)N(C)[C@H]3C/C=C\CCN(C3=O)[C@@H](Cc3ccc(C(F)(F)F)cc3)C(=O)N(C)CC(=O)N[C@@H](CCc3ccc(C(F)(F)F)c(Cl)c3)C(=O)N2C1 [PP2126]
IC50 [1]: 13.4 nM
HRAS /KRAS (HRAS wild-type protein): B (a compound having 3 or more and less than 10 is denoted as B)
NRAS /KRAS [2]: A (a compound having 10 or more and less than 20 is denoted as A)

CCO[C@@H]1C[C@H]2C(=O)NC3(CC(C)(C)C3)C(=O)N(C)[C@@H](C(CC)CC)C(=O)N(C)[C@H](C(=O)N(C)C)CC(=O)N(C)[C@@H](CC(C)C)C(=O)N[C@@H]([C@@H](C)CC)C(=O)N(C)CC(=O)N(C)[C@H]3C/C=C\CCN(C3=O)[C@@H](Cc3ccc(C(F)(F)F)cc3)C(=O)N(C)CC(=O)N[C@@H](CCc3cc(F)c(C(F)(F)F)c(F)c3)C(=O)N2C1 [PP2127]
IC50 [1]: 12.5 nM
HRAS /KRAS (HRAS wild-type protein): A (a compound having 10 or more and less than 20 is denoted as A)
NRAS /KRAS [2]: AA (a compound having 20 or more is denoted as AA)

CCO[C@@H]1C[C@H]2C(=O)NC3(CC(C)(C)C3)C(=O)N(C)[C@@H](C(CC)CC)C(=O)N(C)[C@H](C(=O)N3CCCC3)CC(=O)N(C)[C@@H](COC)C(=O)N[C@@H]([C@@H](C)CC)C(=O)N(C)CC(=O)N(C)[C@H]3C/C=C\CCN(C3=O)[C@@H](Cc3ccc(C(F)(F)F)cc3)C(=O)N(C)CC(=O)N[C@@H](CCc3ccc(C(F)(F)F)c(Cl)c3)C(=O)N2C1 [PP2128]
IC50 [1]: 14.8 nM
HRAS /KRAS (HRAS wild-type protein): A (a compound having 10 or more and less than 20 is denoted as A)
NRAS /KRAS [2]: AA (a compound having 20 or more is denoted as AA)

CCO[C@@H]1C[C@H]2C(=O)NC3(CC(C)(C)C3)C(=O)N(C)[C@@H](C(CC)CC)C(=O)N(C)[C@H](C(=O)N(C)C)CC(=O)N(C)[C@@H](CC(C)C)C(=O)N[C@@H]([C@@H](C)CC)C(=O)N(C)CC(=O)N(C)[C@H]3C/C=C\CCN(C3=O)[C@@H](Cc3ccc(C(F)(F)F)cc3)C(=O)N(C)CC(=O)N[C@@H](CCc3ccc(C(F)(F)F)c(Cl)c3)C(=O)N2C1 [PP2132]
IC50 [1]: 18.4 nM
HRAS /KRAS (HRAS wild-type protein): A (a compound having 10 or more and less than 20 is denoted as A)
NRAS /KRAS [2]: AA (a compound having 20 or more is denoted as AA)

CCO[C@@H]1C[C@H]2C(=O)NC3(CC(C)(C)C3)C(=O)N(C)[C@@H](C(CC)CC)C(=O)N(C)[C@H](C(=O)N(C)C)CC(=O)N(C)[C@@H](CC3CCC3)C(=O)N[C@@H]([C@@H](C)CC)C(=O)N(C)CC(=O)N(C)[C@H]3C/C=C\CCN(C3=O)[C@@H](Cc3ccc(C(F)(F)F)cc3)C(=O)N(C)CC(=O)N[C@@H](CCc3cc(F)c(C(F)(F)F)c(F)c3)C(=O)N2C1 [PP2133]
IC50 [1]: 16.2 nM
HRAS /KRAS (HRAS wild-type protein): A (a compound having 10 or more and less than 20 is denoted as A)
NRAS /KRAS [2]: AA (a compound having 20 or more is denoted as AA)

CCO[C@@H]1C[C@H]2C(=O)NC3(CC(C)(C)C3)C(=O)N(C)[C@@H](C(CC)CC)C(=O)N(C)[C@H](C(=O)N(C)C)CC(=O)N(C)[C@@H](C(C)C)C(=O)N[C@@H]([C@@H](C)CC)C(=O)N(C)CC(=O)N(C)[C@H]3C/C=C\CCN(C3=O)[C@@H](Cc3ccc(C(F)(F)F)cc3)C(=O)N(C)CC(=O)N[C@@H](CCc3cc(F)c(C(F)(F)F)c(F)c3)C(=O)N2C1 [PP2135]
IC50 [1]: 15.7 nM
HRAS /KRAS (HRAS wild-type protein): A (a compound having 10 or more and less than 20 is denoted as A)
NRAS /KRAS [2]: AA (a compound having 20 or more is denoted as AA)

CCO[C@@H]1C[C@H]2C(=O)NC3(CC(C)(C)C3)C(=O)N(C)[C@@H](C(CC)CC)C(=O)N(C)[C@H](C(=O)N(C)C)CC(=O)N(C)[C@@H](CC3CC3)C(=O)N[C@@H]([C@@H](C)CC)C(=O)N(C)CC(=O)N(C)[C@H]3C/C=C\CCN(C3=O)[C@@H](Cc3ccc(C)cc3)C(=O)N(C)CC(=O)N[C@@H](CCc3cc(F)c(C(F)(F)F)c(F)c3)C(=O)N2C1 [PP2137]
IC50 [1]: 16.8 nM
HRAS /KRAS (HRAS wild-type protein): A (a compound having 10 or more and less than 20 is denoted as A)
NRAS /KRAS [2]: A (a compound having 10 or more and less than 20 is denoted as A)

CCO[C@@H]1C[C@H]2C(=O)NC3(CC(C)(C)C3)C(=O)N(C)[C@@H](C(CC)CC)C(=O)N(C)[C@H](C(=O)N(C)C)CC(=O)N(C)[C@@H](CC3CCC3)C(=O)N[C@@H]([C@@H](C)CC)C(=O)N(C)CC(=O)N(C)[C@H]3C/C=C\CCN(C3=O)[C@@H](Cc3ccc(C(F)(F)F)cc3)C(=O)N(C)CC(=O)N[C@@H](CCc3ccc(C(F)(F)F)c(Cl)c3)C(=O)N2C1 [PP2138]
IC50 [1]: 15.7 nM
HRAS /KRAS (HRAS wild-type protein): A (a compound having 10 or more and less than 20 is denoted as A)
NRAS /KRAS [2]: A (a compound having 10 or more and less than 20 is denoted as A)

CCO[C@@H]1C[C@H]2C(=O)NC3(CC(C)(C)C3)C(=O)N(C)[C@@H](C(CC)CC)C(=O)N(C)[C@H](C(=O)N(C)C)CC(=O)N(C)[C@@H](C(C)C)C(=O)N[C@@H]([C@@H](C)CC)C(=O)N(C)CC(=O)N(C)[C@H]3C/C=C\CCN(C3=O)[C@@H](Cc3ccc(C(F)(F)F)cc3)C(=O)N(C)CC(=O)N[C@@H](CCc3ccc(C(F)(F)F)c(Cl)c3)C(=O)N2C1 [PP2140]
IC50 [1]: 24.7 nM
HRAS /KRAS (HRAS wild-type protein): A (a compound having 10 or more and less than 20 is denoted as A)
NRAS /KRAS [2]: AA (a compound having 20 or more is denoted as AA)

CCO[C@@H]1C[C@H]2C(=O)NC3(CC(C)(C)C3)C(=O)N(C)[C@@H](C(CC)CC)C(=O)N(C)[C@H](C(=O)N(C)C)CC(=O)N(C)[C@@H](C)C(=O)N[C@@H]([C@@H](C)CC)C(=O)N(C)CC(=O)N(C)[C@H]3C/C=C\CCN(C3=O)[C@@H](Cc3ccc(C)cc3)C(=O)N(C)CC(=O)N[C@@H](CCc3cc(F)c(C(F)(F)F)c(F)c3)C(=O)N2C1 [PP2143]
IC50 [1]: 6.6 nM
HRAS /KRAS (HRAS wild-type protein): A (a compound having 10 or more and less than 20 is denoted as A)
NRAS /KRAS [2]: A (a compound having 10 or more and less than 20 is denoted as A)

CCO[C@@H]1C[C@H]2C(=O)NC3(CC(C)(C)C3)C(=O)N(C)[C@@H](C(CC)CC)C(=O)N(C)[C@H](C(=O)N3CCCC3)CC(=O)N(C)[C@@H](COC)C(=O)N[C@@H]([C@@H](C)CC)C(=O)N(C)CC(=O)N(C)[C@H]3C/C=C\CCN(C3=O)[C@@H](Cc3ccc(C)cc3)C(=O)N(C)CC(=O)N[C@@H](CCc3ccc(C(F)(F)F)c(Cl)c3)C(=O)N2C1 [PP2144]
IC50 [1]: 29 nM
HRAS /KRAS (HRAS wild-type protein): A (a compound having 10 or more and less than 20 is denoted as A)
NRAS /KRAS [2]: AA (a compound having 20 or more is denoted as AA)

CCO[C@@H]1C[C@H]2C(=O)NC3(CC(C)(C)C3)C(=O)N(C)[C@@H](C(CC)CC)C(=O)N(C)[C@H](C(=O)N3CCCC3)CC(=O)N(C)[C@@H](C)C(=O)N[C@@H]([C@@H](C)CC)C(=O)N(C)CC(=O)N(C)[C@H]3C/C=C\CCN(C3=O)[C@@H](Cc3ccc(C)cc3)C(=O)N(C)CC(=O)N[C@@H](CCc3cc(F)c(C(F)(F)F)c(F)c3)C(=O)N2C1 [PP2145]
IC50 [1]: 17.2 nM
HRAS /KRAS (HRAS wild-type protein): A (a compound having 10 or more and less than 20 is denoted as A)
NRAS /KRAS [2]: A (a compound having 10 or more and less than 20 is denoted as A)

CCC[C@H]1C(=O)N[C@@H]([C@@H](C)CC)C(=O)N(C)CC(=O)N(C)[C@H]2C/C=C\CCN(C2=O)[C@@H](Cc2ccc(C)cc2)C(=O)N(C)CC(=O)N[C@@H](CCc2ccc(C(F)(F)F)c(Cl)c2)C(=O)N2C[C@H](OCC)C[C@H]2C(=O)NC2(CC(C)(C)C2)C(=O)N(C)[C@@H](C(CC)CC)C(=O)N(C)[C@H](C(=O)N(C)C)CC(=O)N1C [PP2146]
IC50 [1]: 8.2 nM
HRAS /KRAS (HRAS wild-type protein): A (a compound having 10 or more and less than 20 is denoted as A)
NRAS /KRAS [2]: A (a compound having 10 or more and less than 20 is denoted as A)

CCO[C@@H]1C[C@H]2C(=O)NC3(CC(C)(C)C3)C(=O)N(C)[C@@H](C(CC)CC)C(=O)N(C)[C@H](C(=O)N(C)C)CC(=O)N(C)[C@@H](CC)C(=O)N[C@@H]([C@@H](C)CC)C(=O)N(C)CC(=O)N(C)[C@H]3C/C=C\CCN(C3=O)[C@@H](Cc3ccc(C)cc3)C(=O)N(C)CC(=O)N[C@@H](CCc3cc(F)c(C(F)(F)F)c(F)c3)C(=O)N2C1 [PP2147]
IC50 [1]: 9.7 nM
HRAS /KRAS (HRAS wild-type protein): B (a compound having 3 or more and less than 10 is denoted as B)
NRAS /KRAS [2]: A (a compound having 10 or more and less than 20 is denoted as A)
